Values of other authors in patent US9445622B2, “Compositions and methods for improving creatine solubility and stability” (Glanbia Nutritionals (Ireland) Ltd., priority 2009, dated 2016).

Conditions: solid form, over years, even at elevated temperatures

SMILES: CN(CC(=O)O)C(=N)N.O [creatine monohydrate powder, creatine monohydrate]
- stability of solid powder: no signs of degradation
